Assay results reported in patent publication US12150945B2, “Liver disease” (Lipocine Inc., priority 2018, dated 2024).

Experiments:
Type in all cases: in vivo, human
[1] = test system: SHBG; assay: Sex hormone binding globulin (SHBG) levels, trial of Example 1
Description: (§1) Oral testosterone therapy was evaluated in a multicenter, phase 3, randomized, open-label, active controlled, parallel-group study that included a 13-week efficacy phase and a 52-week safety phase. An active arm in which subjects received T gel was included for safety evaluation only.
Subjects were randomized in a 2:1 ratio to oral testosterone undecanoate or T gel. oral testosterone undecanoate subjects started at a dose of 225 mg TU (“testosterone undecanoate”) taken twice daily (total daily dose: 450 mg TU) every 12 hours. For optimal lymphatic absorption oral testosterone undecanoate must be administered with a meal. […]
(§2) Serum levels of T, TU, dihydrotestosterone (DHT), dihydrotestosterone undecanoate (DHTU), and estradiol (E2) were evaluated in oral testosterone undecanoate treated subjects. […] Sex hormone binding globulin (SHBG) was evaluated in data from all subjects. Serum T concentrations at screening were measured using chemiluminescence immunoassay kits. Hormone assays for pharmacokinetic assessment were analyzed at PPD Bioanalytical Laboratory in Richmond, Virginia Serum samples were analyzed for T, DHT, TU, DHTU, and E2 using a validated liquid chromatography-tandem mass spectrometry (LC-MS/MS) assay.

[2] = Serum DHT, DHT/T ratio, E2 and calculated free T, hormone assessment in trial of Example 1; conditions: for ratio of DHT/T based on Cavg0-24 h / ratio of DHT/T based on Cmax: normal range 0.05 to 0.33
Description: (§3) Subjects were randomized in a 2:1 ratio to oral testosterone undecanoate or T gel. oral testosterone undecanoate subjects started at a dose of 225 mg TU (“testosterone undecanoate”) taken twice daily (total daily dose: 450 mg TU) every 12 hours. For optimal lymphatic absorption oral testosterone undecanoate must be administered with a meal. Therefore, subjects were instructed to administer oral testosterone undecanoate after a standard meal (defined as a meal consisting of 800 to 1400 calories with approximately 20% to 35% fat content). The oral testosterone undecanoate dose was titrated at Weeks 4 and 8, if necessary, based on results of intensive 24-hour PK blood sampling obtained at Weeks 3 and 7, respectively. Oral testosterone undecanoate subjects stayed at the clinic overnight during each intensive PK blood sampling period. […] Oral testosterone undecanoate dose levels permitted during the study were 150 mg BID, 225 mg BID, and 300 mg BID. Data collected during an intensive 24-hour PK sampling overnight stay at Week 13 were used for efficacy analysis; dose was not adjusted at this visit. Additional outpatient visits were conducted at Weeks 26, 39, and 52 during which single blood draws were performed 3 to 6 hours post morning dose. Dose was not adjusted during these visits.
as §2

[3] = test system: lipids; assay: Lipid parameters (HDL, LDL, total cholesterol, triglycerides, non-HDL cholesterol), change from baseline to end of study, trial of Example 1
Description: as §1, §3
(§4) T gel (ANDROGEL®) (testosterone gel for topical use) 1.62%, AbbVie, Chicago, Illinois, US) was supplied in non-aerosol, metered dose pumps that deliver 20.25 mg T per complete pump actuation. T gel was dosed according to product labeling. Subjects receiving T gel completed outpatient visits at Weeks 2 and 4 with single blood draws to determine titration and at Weeks 3 and 5 for dose changes, if necessary. They also completed an outpatient visit at Week 7 for safety assessments and at Weeks 13, 26, 39 and 52 during which single blood samples were obtained 3 to 6 hours after the morning dose. Dose was not adjusted during these visits. Overnight clinic stays were not required for T gel subjects.
(§5) Safety endpoints included adverse events (AEs), physical examination findings, vital signs, electrocardiograms (ECGs), and clinical laboratory tests. AEs were classified using the Medical Dictionary for Regulatory Activities (Version 16.1). Safety endpoints were summarized using descriptive statistics. Lab parameters were evaluated using two sample t-tests comparing change from baseline to end of study (EOS) across oral testosterone undecanoate and T gel subjects with p-values <0.05 considered statistically significant.

[4] = test system: hematocrit, hemoglobin; assay: Androgenic parameters (hematocrit, hemoglobin), change from baseline to end of study, safety set, trial of Example 1
Description: as §1, §3, §4, §5

[5] = test system: C-Reactive Protein; assay: C-Reactive Protein, change from baseline to end of study, trial of Example 1; conditions: Safety Set; subjects with CRP values > 95.23 excluded
[6] = test system: Lipoprotein-associated phospholipase A2; assay: Lipoprotein-associated phospholipase A2, change from baseline to end of study, trial of Example 1
Description: as §1, §3, §4, §5

[7] = test system: ALT, GGT, BUN, total cholesterol, LDL-C, triglyceride; assay: Liver Fat Study: normalization of labs (ALT, GGT, BUN, total cholesterol, LDL-C, triglyceride) at end of study (Example 6)
Description: This example is part of an ongoing Liver Fat Study which is an open-label, multi-center, single arm study evaluating LPCN 1144 treatment (e.g., androgen therapy, testosterone therapy, oral testosterone ester, or 225 mg testosterone undecanoate orally) in a cohort of 36 hypogonadal males (NCT03868059). Subjects with at least 10% baseline liver fat were evaluated which is indicative of subjects with NAFLD with the potential to have NASH. Interim results of seven of the nine subjects in the Liver Fat Study with baseline liver fat of at least 10% are presented as two subjects were unable to schedule an eight-week MRI-PDFF visit. Baseline mean liver fat of these seven subjects was 21.0%.
An MRI-PDFF study of 36 male hypogonadal subjects (having 2 morning testosterone levels of 300 ng/dL or less) was performed as part of an ongoing trial. Basic baseline labs including liver function tests (e.g., AST & ALT) and serum triglycerides were collected and analyzed. It was found by non-linear regression, that BMI (ALT, AST, serum Triglyceride) was associated with liver fat (P<0.006). It was found by non-linear regression, that serum triglyceride levels (obesity, hypertension, type 2 diabetes) were associated with liver fat (P<0.006).

[8] = 4th quartile patients based on lab parameter level, 1 Year Oral TU Study
[9] = Safety Set, baseline to end of study

With `CCCCCCCCCCC(=O)O[C@H]1CC[C@H]2[C@@H]3CCC4=CC(=O)CC[C@]4(C)[C@H]3CC[C@]12C` [oral testosterone undecanoate, testosterone undecanoate] the “SHBG change from baseline” value ([1]; Week 13 (largest decrease)) was -11.75 nmol/L, the “Mean SHBG levels” value ([1]; each post-baseline visit) was “decreased” and the “ratio of DHT/T based on Cavg0-24 h” value ([2]; Week 3) was 0.24. The “ratio of DHT/T based on Cmax” value ([2]; Week 3) was 0.16, the “ratio of DHT/T based on Cavg0-24 h” value ([2]; Week 7) was 0.26 and the “ratio of DHT/T based on Cmax” value ([2]; Week 7) was 0.18. The “ratio of DHT/T based on Cavg0-24 h” value ([2]; Week 13) was 0.26, the “ratio of DHT/T based on Cmax” value ([2]; Week 13) was 0.18 and the “Calculated free T levels” value ([2]; normal values 9 to 30 ng/dL) was “consistently within normal values”. The “LDL-C, mean change from baseline” value [3, 8] was -10.2 mg/dL, the “LDL-C, mean change from baseline, %” value [3, 8] was −6.1% and the “Non-HDL-C, mean change from baseline” value [3, 8] was -18.2 mg/dL. For the same compound, the “Non-HDL-C, mean change from baseline, %” value [3, 8] was −8.7%, the “Total Cholesterol, mean change from baseline” value [3, 8] was -20.2 mg/dL and the “Total Cholesterol, mean change from baseline, %” value [3, 8] was −7.9%. For the same compound, the “Triglycerides, mean change from baseline” value [3, 8] was -85.1 mg/dL, the “Triglycerides, mean change from baseline, %” value [3, 8] was −19.0% and the “Cholesterol, mean (SD) change from baseline to end of study” value [3, 9] was -0.24 (0.82) mmol/L. The “HDL cholesterol, mean (SD) change from baseline to end of study” value [3, 9] was −0.14 (0.22) mmol/L, the “LDL cholesterol, mean (SD) change from baseline to end of study” value [3, 9] was −0.05 (0.66) mmol/L and the “Triglyceride, mean (SD) change from baseline to end of study” value [3, 9] was −0.18 (1.14) mmol/L. For the same compound, the “Serum HDL cholesterol decrease at EOS” value ([3]; compared with T gel) was “significantly larger decrease”, the “HDL cholesterol: subjects with a shift from normal at baseline to low at EOS” value ([3]; in vivo) was 19.0% and the “other lipid parameters, difference between oral testosterone undecanoate and T gel” value ([3]; lipid parameters other than HDL cholesterol) was “No statistically significant differences”. For the same compound, the “Elevated hematocrit (>54%), number of subjects” value ([4]; 52-week safety phase) was 8 subjects, the “subjects withdrawn for elevated hematocrit (>54%)” value ([4]; 52-week safety phase) was 1.4% and the “Hematocrit, mean (SD) change from baseline to end of study” value ([4]; Safety Set, N = 314, baseline to end of study) was 2.54 (3.41) %. The “APTT, mean (SD) change from baseline to end of study” value [4, 9] was 0.61 (4.07), the “Hemoglobin, mean (SD) change from baseline to end of study” value [4, 9] was 7.2 (10.65) g/L and the “PSA, mean (SD) change from baseline to end of study” value [4, 9] was 0.27 (0.97) mcg/L. The “Platelets, mean (SD) change from baseline to end of study” value [4, 9] was 8.5 (31.34) 10^9/L, the “Prothrombin time, mean (SD) change from baseline to end of study” value [4, 9] was 0.31 (1.14) sec and the “hemoglobin, pretreatment to EOS” value ([4]; in vivo) was “Small and similar increases”. For the same compound, the “C-Reactive Protein, mean (SD) change from baseline to end of study” value [5] was −4.68 (30.94) nmol/L, the “Lp-PLA2, mean change from baseline” value [6, 8] was -47.8 ng/mL and the “Lp-PLA2, mean change from baseline, %” value [6, 8] was −17.1%. The “Lp-PLA2, mean (SD) change from baseline to end of study” value [6, 9] was −9.6 (42.07) ng/mL, the “Lipoprotein-associated phospholipase A2, baseline to EOS” value ([6]; difference in change between groups not significant) was “decreased significantly” and the “normalization rate for LDL-C” value [7] was 50%. For the same compound, the “normalization rate for total cholesterol” value [7] was 29%.
